Patent US9776962B2, “Aromatic compounds with GPR40 agonistic activity” (TAKEDA PHARMACEUTICAL COMPANY LIMITED, priority 2013, dated 2017)

Molecular target: T1, human GPR40 (Homo sapiens, UniProt O14842)
T1 construct: expressed in transfected cells
Assay: Evaluation of human GPR40 agonist activity with increase in intracellular Ca2+ concentration as an index (FLIPR)
Assay type: cell-based
Conditions: test compound 1 μM; CHO(dhfr−) cells stably expressing human GPR40; 100% = 10 μM compound of Example 153, 0% = DMSO
Summary of the method: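 CHO(dhfr−) cells stably expressing full-length human GPR40 were loaded with Ca2+ probe for 1 h at room temperature, then given test compound at 1 μM final. Fluorescence was followed on FLIPR, with activity scaled to a reference agonist at 10 μM (100%) and DMSO (0%).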

T1 sequence (O14842 whole entry): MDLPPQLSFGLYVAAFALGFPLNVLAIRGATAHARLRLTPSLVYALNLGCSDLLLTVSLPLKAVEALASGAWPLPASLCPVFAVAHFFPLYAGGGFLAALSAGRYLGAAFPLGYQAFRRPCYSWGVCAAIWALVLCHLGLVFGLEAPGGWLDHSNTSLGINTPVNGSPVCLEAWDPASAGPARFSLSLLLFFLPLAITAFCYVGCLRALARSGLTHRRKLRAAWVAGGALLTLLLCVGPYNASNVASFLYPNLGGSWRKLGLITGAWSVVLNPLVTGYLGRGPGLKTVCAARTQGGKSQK

activation at 1 µM [%] | SMILES
97 | COc1ccc(C(=O)N(CC(C)(C)C)c2nc(C)ccc2F)c(N2CCC(COc3cc(C(CC(=O)O)C4CC4)ccn3)CC2)c1 (stereo not shown) [Example 234, 3-cyclopropyl-3-(2-((1-(2-((2,2-dimethylpropyl) (3-fluoro-6-methylpyridin-2-yl)carbamoyl)-5-methoxyphenyl)piperidin-4-yl)methoxy)pyridin-4-yl)propanoic acid]
101 | COc1ccc(C(=O)N(CC(F)(F)F)c2cc(C)nc(C)n2)c(N2CCC(COc3cc(C(CC(=O)O)C4CC4)ccn3)CC2)c1 (stereo not shown) [Example 238, 3-cyclopropyl-3-(2-((1-(2-((2,6-dimethylpyrimidin-4-yl) (2,2,2-trifluoroethyl)-carbamoyl)-5-methoxyphenyl)piperidin-4-yl)methoxy)pyridin-4-yl)propanoic acid]
100 | COc1ccc(C(=O)N(CC(F)(F)F)c2ccnc(C)n2)c(N2CCC(COc3cc(C(CC(=O)O)C4CC4)ccn3)CC2)c1 (stereo not shown) [Example 239, 3-cyclopropyl-3-(2-((1-(5-methoxy-2-((2-methyl-pyrimidin-4-yl) (2,2,2-trifluoroethyl)carbamoyl)-phenyl)piperidin-4-yl)methoxy)pyridin-4-yl)propanoic acid]
95 | COc1ccc(C(=O)Nc2cccc(C)n2)c(N2CCC(COc3cc(C(CC(=O)O)C4CC4)ccn3)CC2)c1 (stereo not shown) [Example 241, 3-cyclopropyl-3-(2-((1-(5-methoxy-2-((6-methylpyridin-2-yl)-carbamoyl)phenyl)-piperidin-4-yl)methoxy)pyridin-4-yl)propanoic acid]
101 | COc1ccc(C(=O)N(CC(C)(C)C)c2cc(C)cc(C)n2)c(N2CCC(COc3cc(C(CC(=O)O)C4CC4)ccn3)CC2)c1 (stereo not shown) [Example 243, 3-cyclopropyl-3-(2-((1-(2-((2,2-dimethylpropyl)(4,6-dimethylpyridin-2-yl)carbamoyl)-5-methoxyphenyl)piperidin-4-yl)methoxy)pyridin-4-yl)propanoic acid]
91 | COc1cc(N2CCC(COc3cc(C(CC(=O)O)C4CC4)ccn3)CC2)c(C(=O)N(CC(C)(C)C)c2cccc(C)n2)cc1F (stereo not shown) [Example 250, 3-cyclopropyl-3-(2-((1-(2-((2,2-dimethylpropyl)(6-methylpyridin-2-yl)carbamoyl)-4-fluoro-5-methoxyphenyl)piperidin-4-yl)methoxy)pyridin-4-yl)propanoic acid]
91 | COc1cc(F)c(C(=O)N(CC(C)(C)C)c2cccc(C)n2)c(N2CCC(COc3cc(C(CC(=O)O)C4CC4)ccn3)CC2)c1 (stereo not shown) [Example 251, 3-cyclopropyl-3-(2-((1-(2-((2,2-dimethylpropyl)(6-methylpyridin-2-yl)carbamoyl)-3-fluoro-5-methoxyphenyl)piperidin-4-yl)methoxy)pyridin-4-yl)propanoic acid]
87 | COc1ccc(C(=O)N(CC(C)(C)C)c2cccc(C)n2)c(N2CCC(COc3cc(C(CC(=O)O)C4CC4)ccn3)CC2)c1F (stereo not shown) [Example 252, 3-cyclopropyl-3-(2-((1-(6-((2,2-dimethylpropyl)(6-methylpyridin-2-yl)carbamoyl)-2-fluoro-3-methoxyphenyl)piperidin-4-yl)methoxy)pyridin-4-yl)propanoic acid]
74 | COc1c(F)cc(C(=O)N(CC(C)(C)C)c2cccc(C)n2)c(N2CCC(COc3cc(C(CC(=O)O)C4CC4)ccn3)CC2)c1F (stereo not shown) [Example 253, 3-cyclopropyl-3-(2-((1-(6-((2,2-dimethylpropyl)(6-methylpyridin-2-yl)carbamoyl)-2,4-difluoro-3-methoxyphenyl)piperidin-4-yl)methoxy)pyridin-4-yl)propanoic acid]
103 | COc1cc(N2CCC(COc3cc(C(CC(=O)O)C4CC4)ccn3)CC2)c(C(=O)N(CC(C)(C)C)c2cccc(C)n2)cn1 (stereo not shown) [Example 255, 3-cyclopropyl-3-(2-((1-(5-((2,2-dimethylpropyl)(6-methylpyridin-2-yl)carbamoyl)-2-methoxypyridin-4-yl)piperidin-4-yl)methoxy)pyridin-4-yl)propanoic acid]
94 | Cc1ccc(C(=O)N(CC(C)(C)C)c2cccc(C)n2)c(N2CCC(COc3cc(C(CC(=O)O)C4CC4)ccn3)CC2)c1 (stereo not shown) [Example 258, 3-cyclopropyl-3-(2-((1-(2-((2,2-dimethylpropyl)(6-methylpyridin-2-yl)carbamoyl)-5-methylphenyl)piperidin-4-yl)methoxy)pyridin-4-yl)propanoic acid]
77 | Cc1cccc(N(CC(C)(C)C)C(=O)c2ccc(O)cc2N2CCC(COc3cc(C(CC(=O)O)C4CC4)ccn3)CC2)n1 (stereo not shown) [Example 259, 3-cyclopropyl-3-(2-((1-(2-((2,2-dimethylpropyl)(6-methylpyridin-2-yl)carbamoyl)-5-hydroxyphenyl)piperidin-4-yl)methoxy)pyridin-4-yl)propanoic acid]
89 | Cc1cccc(N(CC(C)(C)C)C(=O)c2ccc(C#N)cc2N2CCC(COc3cc(C(CC(=O)O)C4CC4)ccn3)CC2)n1 (stereo not shown) [Example 260, 3-(2-((1-(5-cyano-2-((2,2-dimethylpropyl)(6-methylpyridin-2-yl)carbamoyl)phenyl)piperidin-4-yl)methoxy)pyridin-4-yl)-3-cyclopropylpropanoic acid]

The remaining lines, values behind:

SMILES | activation at 1 µM [%]
COc1ccc(C(=O)N(CC(C)(C)C)c2cncc(C)c2)c(N2CCC(COc3cc(C(CC(=O)O)C4CC4)ccn3)CC2)c1 (stereo not shown) [Example 231, 3-cyclopropyl-3-(2-((1-(2-((2,2-dimethylpropyl) (5-methylpyridin-3-yl)carbamoyl)-5-methoxyphenyl)piperidin-4-yl)methoxy)pyridin-4-yl)propanoic acid] | 92
COc1ccc(C(=O)N(CC(C)(C)C)c2cc(C)cnn2)c(N2CCC(COc3cc(C(CC(=O)O)C4CC4)ccn3)CC2)c1 (stereo not shown) [Example 232, 3-cyclopropyl-3-(2-((1-(2-((2,2-dimethylpropyl) (5-methylpyridazin-3-yl)carbamoyl)-5-methoxyphenyl)piperidin-4-yl)methoxy)pyridin-4-yl)propanoic acid] | 85
COc1ccc(C(=O)N(CC(C)(C)C)C2CCCN(CC(F)(F)F)C2)c(N2CCC(COc3cc(C(CC(=O)O)C4CC4)ccn3)CC2)c1 (stereo not shown) [Example 233, 3-cyclopropyl-3-(2-((1-(2-((2,2-dimethylpropyl) (1-(2,2,2-trifluoroethyl)piperidin-3-yl)carbamoyl)-5-methoxyphenyl)piperidin-4-yl)methoxy)pyridin-4-yl)propanoic acid] | 85
COc1ccc(C(=O)N(CC(C)(C)C)c2cncc(C(F)(F)F)c2)c(N2CCC(COc3cc(C(CC(=O)O)C4CC4)ccn3)CC2)c1 (stereo not shown) [Example 235, 3-cyclopropyl-3-(2-((1-(2-((2,2-dimethylpropyl) (5-(trifluoromethyl)pyridin-3-yl)carbamoyl)-5-methoxyphenyl)piperidin-4-yl)methoxy)pyridin-4-yl)propanoic acid] | 91
COc1ccc(C(=O)N(CC(F)(F)F)c2cncc(C(F)(F)F)c2)c(N2CCC(COc3cc(C(CC(=O)O)C4CC4)ccn3)CC2)c1 (stereo not shown) [Example 236, 3-cyclopropyl-3-(2-((1-(5-methoxy-2-((2,2,2-trifluoroethyl) (5-(trifluoromethyl)pyridin-3-yl)carbamoyl)-phenyl)piperidin-4-yl)methoxy)pyridin-4-yl)propanoic acid] | 91
COc1ccc(C(=O)N(CC2CC2)c2nccc(C(F)(F)F)n2)c(N2CCC(COc3cc(C(CC(=O)O)C4CC4)ccn3)CC2)c1 (stereo not shown) [Example 237, 3-cyclopropyl-3-(2-((1-(2-((cyclopropylmethyl) (4-(trifluoromethyl)-pyrimidin-2-yl)carbamoyl)-5-methoxyphenyl)piperidin-4-yl)methoxy)pyridin-4-yl)propanoic acid] | 98
COc1ccc(C(=O)N(CC(F)(F)F)c2cc(C)ncn2)c(N2CCC(COc3cc(C(CC(=O)O)C4CC4)ccn3)CC2)c1 (stereo not shown) [Example 240, 3-cyclopropyl-3-(2-((1-(5-methoxy-2-((6-methylpyrimidin-4-yl)-(2,2,2-trifluoroethyl)-carbamoyl)phenyl)-piperidin-4-yl)methoxy)-pyridin-4-yl)propanoic acid] | 99
COc1ccc(C(=O)Nc2ccccn2)c(N2CCC(COc3cc(C(CC(=O)O)C4CC4)ccn3)CC2)c1 (stereo not shown) [Example 242, 3-cyclopropyl-3-(2-((1-(5-methoxy-2-(pyridin-2-ylcarbamoyl)phenyl)piperidin-4-yl)methoxy)pyridin-4-yl)propanoic acid] | 93
COc1ccc(C(=O)N(CC2CC2)c2cc(C)cc(C)n2)c(N2CCC(COc3cc(C(CC(=O)O)C4CC4)ccn3)CC2)c1 (stereo not shown) [Example 244, 3-cyclopropyl-3-(2-((1-(2-((cyclopropylmethyl)(4,6-dimethylpyridin-2-yl)carbamoyl)-5-methoxyphenyl)piperidin-4-yl)methoxy)pyridin-4-yl)propanoic acid] | 99
COc1ccc(C(=O)N(CC(C)(C)C)c2ccccn2)c(N2CCC(COc3cccc(C(CC(=O)O)C4CC4)c3)CC2)n1 (stereo not shown) [Example 254, 3-cyclopropyl-3-(3-((1-(3-((2,2-dimethylpropyl)(pyridin-2-yl)carbamoyl)-6-methoxypyridin-2-yl)piperidin-4-yl)methoxy)phenyl)propanoic acid] | 74
COc1cc(N2CCC(COc3cc(C(CC(=O)O)C4CC4)ccn3)CC2)c(C(=O)N(CC(F)(F)F)c2ccccn2)cn1 (stereo not shown) [Example 256, 3-cyclopropyl-3-(2-((1-(2-methoxy-5-(pyridin-2-yl(2,2,2-trifluoroethyl)carbamoyl)pyridin-4-yl)piperidin-4-yl)methoxy)pyridin-4-yl)propanoic acid] | 96
COc1cc(N2CCC(COc3cc(C(CC(=O)O)C4CC4)ccn3)CC2)c(C(=O)N(CC(C)(C)C)c2cc(C)ncn2)cn1 (stereo not shown) [Example 257, 3-cyclopropyl-3-(2-((1-(5-((2,2-dimethylpropyl)(6-methylpyrimidin-4-yl)carbamoyl)-2-methoxypyridin-4-yl)piperidin-4-yl)methoxy)pyridin-4-yl)propanoic acid] | 98
